The results in this text go back to PubChem BioAssay (NCI).

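48-hour exposure; five concentrations; linearly interpolated endpoints. At the TGI there is no net growth.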

Some test systems named below: DLD-1 colon; HOP-18 NSCLC; LXFL 529 NSCLC; M19-MEL melanoma; RXF-631 renal; SNB-78 CNS; XF 498 CNS; P388 leukemia; P388/ADR leukemia; SN12K1 renal.
Holding throughout (assay): NCI tumour cell line growth inhibition, 48 h

On to `Cc1cn(C2CC(O)C(CO)C2C)c(=O)[nH]c1=O` (stereo not given), for which the TGI with DLD-1 colon, with HOP-18 NSCLC, in the assay on LXFL 529 NSCLC, in the assay on M19-MEL melanoma, in the assay on RXF-631 renal and in the assay with SNB-78 CNS was more than 100 µM in each case. Further, the TGI in the assay on XF 498 CNS was more than 100 µM.

`C=Nc1ccc([N+](=O)[O-])cc1`: the TGI with DLD-1 colon is more than 100 µM; in the assay with HOP-18 NSCLC it was more than 92.9 µM; in the assay with LXFL 529 NSCLC, more than 100 µM; with M19-MEL melanoma, more than 100 µM; in the assay on SNB-78 CNS it was more than 100 µM; in the assay with XF 498 CNS it was more than 100 µM.

For `CO/C(=N\N=C\c1ccc(Cl)cc1)c1ccncc1`, the TGI in the assay on DLD-1 colon, in the assay with LXFL 529 NSCLC, with SNB-78 CNS and in the assay with XF 498 CNS was more than 100 µM throughout.

As to `CN(C)N=Nc1ccc([N+](=O)[O-])cc1C(N)=O`, the TGI in the assay on DLD-1 colon, with HOP-18 NSCLC, in the assay on M19-MEL melanoma, in the assay with P388 leukemia, in the assay on P388/ADR leukemia and in the assay with SN12K1 renal was more than 100 µM throughout. The TGI in the assay on SNB-78 CNS and in the assay with XF 498 CNS was more than 100 µM throughout.
